We go through twelve molecules from patent publication US8999956B2, “N-[(het)arylalkyl)] pyrazole(thio)carboxamides and their heterosubstituted analogues” (Bayer Intellectual Property GmbH, priority 2010, dated 2015).

Read-outs that look alike come from different tables or passages of the source. A value given as a limit tells only on which side of the number the result lay.

As usually defined, the logP is the decadic logarithm of the partition coefficient of the neutral form, usually between octanol and water. High values mean higher lipophilicity, low ones lower lipophilicity.

For one data set, the system named is Puccinia triticina. Put plainly: In vivo preventive test on Puccinia triticina (wheat). To be noted: for pest or weed control at 500 ppm: Puccinia triticina, 192 h, read-out: Efficacy.
A short description of data set [1]: log P by HPLC on reversed-phase column (EEC Directive 79/831 Annex V.A8). Format: physicochemical. As to the method:
In table 1, the log P values were determined in accordance with EEC Directive 79/831 Annex V.A8 by HPLC (High Performance Liquid Chromatography) on a reversed-phase column (C18), using the method described below: Temperature: 40° C.; […]

The subject of another data set is Alternaria solani. Put plainly: In vivo preventive test on Alternaria solani (tomato). To be noted: 500 ppm of active ingredient, evaluated 7 days after inoculation. In outline:
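Young tomato plants sprayed preventively with compound in DMF/alkylarylpolyglycolether emulsion diluted in water to the stated rate. Inoculation with aqueous Alternaria solani spore suspension one day after treatment.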

Data set [2] has as its system aflatoxines produced by Aspergillus parasiticus. Put plainly: microbe, parasite or virus in culture. The data set is classed as cell-based.
A further data set has as its system Aspergillus parasiticus. Put plainly: microbe, parasite or virus in culture. Format: cell-based.
For the next data set, the system named is Pyrenophora teres. Put plainly: In vivo preventive test on Pyrenophora teres (barley). To be noted: 500 ppm of active ingredient, evaluated 7-9 days after inoculation. The procedure, abridged: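 Compound formulated in N,N-dimethylformamide with alkylaryl polyglycol ether emulsifier and diluted in water, then sprayed on young barley plants at the stated application rate. Plants inoculated one day later with aqueous Pyrenophora teres spore suspension, testing preventive protection.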

Where [3] appears, read: 500 ppm of active ingredient, evaluated 8 days after inoculation.
Setting [4] is: Table K6, dose 500 ppm, comparison with des-fluoro analogues.

As for `Cn1nc(C(F)F)c(C(=O)NC2CCCCC2C2CCCCC2)c1F` (stereo not shown) [Example 374], the Efficacy result with Puccinia triticina (setting [3]) is reported as “total protection”; with Puccinia triticina (setting [4]), 100%; in the data set with Puccinia triticina (Table K, 500 ppm of active ingredient, evaluated 8 days after inoculation) it was 100%. The molecule also yielded a logP in data set [1] of 4.34.
As for `Cn1cc(C(=O)NC2CCCCC2C2CCCCC2)c(C(F)F)n1` (stereo not shown) [compound CMP5, N-[1,1′-bi(cyclohexyl)-2-yl]-3-(difluoromethyl)-1-methyl-1H-pyrazole-4-carboxamide, reference compound], in the data set with Puccinia triticina (setting [3]), the Efficacy result is “no protection”. Besides, the pest or weed control at 500 ppm in the data set with Puccinia triticina (setting [4]) stood at 0%.
Taken in the same sequence, the figures for `Cc1nn(C)c(F)c1C(=O)NC1CCCCC1C1CCCCC1` (stereo not shown) [compound CMP4, N-[1,1′-bi(cyclohexyl)-2-yl]-5-fluoro-1,3-dimethyl-1H-pyrazole-4-carboxamide, reference compound] were “no protection” and 0%.
As for `CC(COc1cc(Cl)ccc1Cl)NC(=O)c1c(C(F)F)nn(C)c1Cl` (stereo not shown) [Example 174], the Efficacy is reported as 100% in the data set on Alternaria solani and 95% in the data set with Pyrenophora teres. Also, in data set [2], the “% Inhibition of Aflatoxin at 50 μM” value is 85%. Also, the “% Inhibition of fungal growth at 50 μM” value in the data set with Aspergillus parasiticus is 67%. In addition, the logP in data set [1] is recorded as 3.69.
For `CCC(COc1cc(Cl)cc(Cl)c1)NC(=O)c1c(C(F)F)nn(C)c1F` (racemic) [Example 123], in that order: 95%, 100%, 100%, 96% and 4.04.
For `Cc1cccc(OC2CCCC2NC(=O)c2c(C(F)F)nn(C)c2F)c1` (stereo not shown) [Example 259], in that order: 90%, 78%, 97%, 82% and 3.52.
For `Cn1nc(C(F)F)c(C(=O)NC(C)(C)CCc2cc(Cl)ccc2Cl)c1F` [Example 178], in that order: 95%, 100%, 100%, 88% and 4.26.
As to `Cc1nn(C)c(F)c1C(=O)N(C(C)CCc1ccc(Cl)c(Cl)c1)C1CC1` (stereo not shown) [E-13 from WO-2008/101976, N-cyclopropyl-N-[4-(3,4-dichlorophenyl)butan-2-yl]-5-fluoro-1,3-dimethyl-1H-pyrazole-4-carboxamide, reference compound], in the data set on Puccinia triticina (500 ppm of active ingredient, evaluated 8 days after inoculation, listed as example E-13 disclosed in patent application WO-2008/101976), the Efficacy entry is “no protection”. For the same molecule, in the data set with Puccinia triticina (setting [3]), the pest or weed control at 500 ppm is 0%.
`CC(COc1ccc(Cl)cc1Cl)N(C(=O)c1cn(C)nc1C(F)F)C1CC1` (stereo not shown) [18 from WO-2010/012795, N-cyclopropyl-N-[1-(2,4-dichlorophenoxy)propan-2-yl]-3-(difluoromethyl)-1-methyl-1H-pyrazole-4-carboxamide, reference compound]: the pest or weed control at 500 ppm in the data set with Puccinia triticina (setting [3]) is under 30%.
As for `CC(COc1cc(Cl)cc(Cl)c1)NC(=O)c1c(C(F)F)nn(C)c1Cl` (racemic) [Example 122], the Efficacy in the data set on Alternaria solani and in the data set on Pyrenophora teres was 100% each time. In addition, the “% Inhibition of Aflatoxin at 50 μM” value in data set [2] was 100%. Besides, in the data set on Aspergillus parasiticus, the “% Inhibition of fungal growth at 50 μM” value was determined as 91%. In addition, the logP in data set [1] amounted to 3.92.
On to `Cn1nc(C(F)F)c(C(=O)NCCCc2ccc(Cl)cc2Cl)c1F` [Example 180], for which the Efficacy in the data set on Alternaria solani was 90%; with Pyrenophora teres it was 100%. Also, in data set [2], the “% Inhibition of Aflatoxin at 50 μM” value is 100%. For the same molecule, the “% Inhibition of fungal growth at 50 μM” value in the data set with Aspergillus parasiticus came to 100%. This molecule showed a logP in data set [1] of 3.46.
Turning to `Cn1nc(C(F)F)c(C(=O)NC(C)(C)CCc2cccc(C(F)(F)F)c2)c1F` [Example 136], the Efficacy was 80% with Alternaria solani and 95% in the data set with Pyrenophora teres. Moreover, in data set [2], the “% Inhibition of Aflatoxin at 50 μM” value is 93%. Besides, in the data set with Aspergillus parasiticus, the “% Inhibition of fungal growth at 50 μM” value is 71%. The same molecule came in with a logP in data set [1] of 3.94.
